# Reference: patent publication US9878985B2, “Benzocyclobutane(thio) carboxamides” (BAYER CROPSCIENCE AKTIENGESELLSCHAFT, priority 2013, dated 2018)
# Test: Log P by HPLC on reversed phase columns (EEC directive 79/831 Annex V.A8)
# Format: physicochemical
# Settings: Table 1; method [a]: LC-UV, acidic range, 0.1% formic acid in water and acetonitrile
# Procedure: Measurement of Log P values was performed according to EEC directive 79/831 Annex V.A8 by HPLC (High Performance Liquid Chromatography) on reversed phase columns with the following method: • [^a] Log P value is determined by measurement of LC-UV, in an acidic range, with 0.1% formic acid in water and acetonitrile as eluent (linear gradient from 10% acetonitrile to 95% acetonitrile). Calibration was done with straight-chain alkan2-ones (with 3 to 16 carbon atoms) with known Log P values (measurement of Log P values using retention times with linear interpolation between successive alkanones). Lambda-max-values were determined using UV-spectra from 200 nm to 400 nm and the peak values of the chromatographic signals.
row,SMILES,LogP
1,Cc1nn(C)c(F)c1C(=O)Nc1cccc2c1CC21CCCCC1 [Example I-10],3.87^[a]
2,Cn1nc(C(F)F)c(C(=O)Nc2cccc3c2CC3c2ccccc2)c1Cl (centres unmarked) [Example I-11],3.71^[a]
3,CC(C)C1Cc2c(NC(=O)c3c(C(F)F)nn(C)c3Cl)cccc21 (centres unmarked) [Example I-16],4.06^[a]
4,O=C(Nc1cccc2c1CC21CCCCC1)c1cccnc1C(F)F [Example I-17],3.80^[a]
5,O=C(Nc1cccc2c1CC2c1ccccc1)c1cccnc1C(F)F (centres unmarked) [Example I-19],3.06^[a]

# The next lines start with the values.
row,LogP,SMILES
1,3.20^[a],Cn1cc(C(=O)Nc2cccc3c2CC3c2ccccc2)c(C(F)F)n1 (centres unmarked) [Example I-01]
2,3.90[a],Cn1nc(C(F)F)c(C(=O)Nc2cccc3c2CC32CCCC2)c1F [Example I-02]
3,3.59^[a],Cn1cc(C(=O)Nc2cccc3c2CC32CCCC2)c(C(F)F)n1 [Example I-03]
4,4.36^[a],CCC1(CC)Cc2c(NC(=O)c3c(C(F)F)nn(C)c3Cl)cccc21 [Example I-04]
5,3.31^[a],CCC1(C)Cc2c(NC(=O)c3cccnc3C(F)F)cccc21 (centres unmarked) [Example I-05]
6,3.39^[a],CC(C)C1Cc2c(NC(=O)c3cccnc3C(F)F)cccc21 (centres unmarked) [Example I-06]
7,4.56^[a],Cn1nc(C(F)F)c(C(=O)Nc2cccc3c2CC32CCCCC2)c1Cl [Example I-07]
8,3.94^[a],Cn1cc(C(=O)Nc2cccc3c2CC32CCCCC2)c(C(F)F)n1 [Example I-08]
9,3.46^[a],O=C(Nc1cccc2c1CC21CCCC1)c1cccnc1C(F)F [Example I-09]
10,3.96^[a],CCC1(C)Cc2c(NC(=O)c3c(C(F)F)nn(C)c3Cl)cccc21 (centres unmarked) [Example I-12]
11,3.44^[a],CCC1(C)Cc2c(NC(=O)c3cn(C)nc3C(F)F)cccc21 (centres unmarked) [Example I-13]
12,4.11^[a],CCC1(CC)Cc2c(NC(=O)c3c(C(F)F)nn(C)c3F)cccc21 [Example I-14]
13,3.02^[a],CC1Cc2c(NC(=O)c3c(C(F)F)nn(C)c3F)cccc21 (centres unmarked) [Example I-15]
14,4.31^[a],Cn1nc(C(F)F)c(C(=O)Nc2cccc3c2CC32CCCCC2)c1F [Example I-18]
15,3.50^[a],CC(C)C1Cc2c(NC(=O)c3cn(C)nc3C(F)F)cccc21 (centres unmarked) [Example I-20]
16,4.14^[a],Cn1nc(C(F)F)c(C(=O)Nc2cccc3c2CC32CCCC2)c1Cl [Example I-21]

# Same assay, conditions: Table 2 (amines III-a); method [a]: LC-UV, acidic range, 0.1% formic acid in water and acetonitrile
row,LogP,SMILES
1,2.03^[a],Nc1cccc2c1CC21CCCC1 [III-a-1]
2,2.32^[a],CCC1(CC)Cc2c(N)cccc21 [III-a-2]
3,0.87^[a],CC1Cc2c(N)cccc21 (centres unmarked) [III-a-3]
4,1.90^[a],CC(C)C1Cc2c(N)cccc21 (centres unmarked) [III-a-4]
5,1.36^[a],CC1(C)Cc2c(N)cccc21 [III-a-5]
6,1.82^[a],CCC1(C)Cc2c(N)cccc21 (centres unmarked) [III-a-6]
7,2.37^[a],Nc1cccc2c1CC21CCCCC1 [III-a-7]
8,2.20^[a],Nc1cccc2c1CC2c1ccccc1 (centres unmarked) [III-a-8]
